Reference: patent publication US20180030537A1, “PUMA, A PRO-APOPTOTIC GENE, AS A NOVEL MOLECULAR BIOMARKER FOR TNFALPHA-INDUCED HUMAN ISLET DAMAGE” (CITY OF HOPE, priority 2010, published 2018)
“Also recorded” adds a separate entry of the source.

Legend:
human islets [1] = assay: Western blot of PUMA and phospho-p65 in cultured human islets; type: cell-based
Description: All data are presented as a mean±standard error.
In some experiments, islets were pre-incubated with 10 μM NFκB inhibitor; BAY11-7082 for 1 hour before cytokine stimulation. Islet cell lysis and western blot was performed as previously described (49).

islets = conditions: in vitro; cited from earlier work
human islets [2] = assay: Drug compound screening in single human islets: TNF-α induced PUMA, IL-8 and TNF mRNA; type: cell-based; conditions: pre-incubation 1 hour, 10 μM (Etanercept 0.1 μg/mL), then 5 ng/mL TNF-α 4 hours, vs control (vehicle alone); for TNF-α induced up regulation of PUMA mRNA (% ACTB): FIG. 4A; for TNF-α induced up regulation of IL-8 mRNA (% ACTB): FIG. 4B; for TNF-α induced up regulation of endogenous TNF mRNA (% ACTB): FIG. 4C
Description: FIGS. 4A-C. PUMA, IL-8 and TNF-α are used as markers to screen drug compounds protecting islets from TNF-α stimulus. Single human islets in hextuplicate were pre-incubated with various drugs (all used at 10 μM except Etanercept (0.1μ/ml)) or solvent (DMSO) at 37° C. for 1 hour, followed by stimulation with or without 5 ng/ml of TNF-α for an additional 4 hours. FIG. 4A: PUMA and ACTB mRNA were quantified and the results are expressed as % ACTB (*p<0.05 vs. control islets with TNF-α). FIG. 4B: IL-8 was quantified and the results are expressed as % ACTB. FIG. 4C: Endogenous TNF-α was quantified and the results are expressed as % ACTB. Together, the results of FIGS. 4A-C show an example of a compound screening system using PUMA, IL-8 and TNF mRNA.
Human islets and acinar cells isolated for research use were obtained from the Southern California Islet Cell Resources (SC-ICR) Center, Beckman Research Institute of the City of Hope (Duarte, Calif.) 1 to 3 days after isolation. The donor age ranged from 18 to 67 (48±14) years and included both sexes. Islet preparations with >70% purity and >90% viability were used. The use of human islets and acinar cells in this study was approved by the Institutional Review Board of the City of Hope. For mRNA experiments, islets between 150 μm to 300 μm in diameter (medium size islet) were handpicked in hexuplicate by experienced personnel under a dissection microscope without staining. Each handpicked islet was cultured individually in a non-tissue culture treated 96 well plate (Sarstedt, Newton, N.C.) with a CMRL (Mediatech Inc., Holly Hill, Fla.) based serum-free medium, which is used to culture human islets for clinical transplantation. Islets were treated with or without recombinant human TNF-α (0, 1, 5, 50 ng/mL) and/or recombinant human IFNγ (0, 10, 100, 1000 U/mL) for up to 16 hours. For other islet experiments, 500 to 1000 islet equivalent (IEQ) were cultured (500 IEQ/mL of medium) in a Petri dish for up to 24 hours in the same condition described above unless otherwise specified. For acinar cell experiments, acinar cells were kept in islet culture medium at 4° C. immediately after the isolation and used within 24 hours. Aliquots of 5-10 acinar cell clusters in triplicates were cultured with islet culture medium with or without TNF-α for up to 16 hours. For drug compound screening experiments, islets were pre-incubated with Etanercept, FK506, Cyclosporine (CsA), Rapamycin, Imatinib mesylate, Janus Kinase (JAK) inhibitor or p38 inhibitor, SB203580, for 1 hour, and then 5 ng/mL TNF-α was added to the islet culture for 4 hours. All the compounds except Etanercept (0.1 μg/mL) were dissolved in dimethyl sulfoxide (DMSO) and used at a concentration of 10 μM (all compounds are gifts from Hitachi Chemical Research Center).
RNA purification and PCR was performed as described previously (32). Briefly, following culture, islets were transferred to a 96-well filter plate (Hitachi Chemical Research Center-HCR, Irvine, Calif.)(44) and 50 μL of Lysis Buffer (HCR) containing a cocktail of specific reverse primers was applied to each well. Poly(A)+mRNA isolation was performed using the Hem(A)+™ System (Hitachi Chemical Research Center, Irvine, Calif.). The resultant cell lysates were transferred to oligo(dT)-immobilized microplates (GenePlate, HCR) for poly(A)^+ mRNA purification (45). The cDNA was directly synthesized with 30 μL of solution in each well: specific primer-primed cDNA in the liquid phase and oligo(dT)-primed cDNA in the solid phase (44). The cDNA in the solution was diluted by adding 30 μL nuclease-free water, with 4 μL of the diluted cDNA used for SYBR Green PCR (BioRad, Hercules, Calif.) (46). Each gene was amplified individually. The cycle threshold (Ct) was determined using analytical software (SDS, Applied Biosystems, Foster City, Calif.). Differences in Ct between the target and control mRNA (ΔCt) are used to quantify the relative amount of each target, calculated as 2^−ΔCt. […]

NOD mice = conditions: cited from earlier work
[3] = children with new onset of T1DM; cited from earlier work
human islets [4] = assay: IL-1β stimulation of single human islets, mRNA by RT-PCR; type: cell-based; conditions: recombinant IL-1β up to 100 U/mL, up to 16 hours, n=1
Description: FIGS. 16A-D. IL-1β up-regulates PUMA mRNA in human islets. Single islets in sextuplicate were stimulated with or without recombinant IL-1β (0.10 and 100 U/mL) for up to 16 hours. FIG. 16A) PUMA, FIG. 16B) IL-8, FIG. 16C) endogenous IL-1B and FIG. 16D) endogenous TNF mRNA in islets were normalized by β actin (% ACTB) mRNA assessed by RT-PCR (n=1). IL-1β induced PUMA, IL-8, endogenous IL-1 and TNF in human islets.
In addition to TNF-α, the expression of PUMA was examined following stimulation with […]. […] alone stimulation induced PUMA, IL-8, TNF and IL1B mRNA within 4 hours. […] IL-1β-induced PUMA expression can also be explained through the NFκB pathway.

human islets [5] = assay: Cytokine stimulation of single human islets, mRNA quantification; type: cell-based; conditions: TNF-α 1, 5, 50 ng/ml and/or IFNγ 10, 100, 1000 U/ml
Description: Single islets were stimulated with or without 50 ng/ml TNF-α for 16 hours. Each dot indicates the result of one islet lot tested in hextuplicate. The tests were performed using 4 different human islet lots. Bars indicate the mean of 4 lots. Each gene expression was normalized by ACTB (a gene encoding β actin), and the fold increase was calculated by dividing TNF-α treated islets by control islets (*p<0.01, n=4). […] FIGS. 8B-D) PUMA (FIG. 8B), IL-8 (FIG. 8C) and TNF-α (FIG. 8D) expression from single human islets (n=6) stimulated with 0 (open circles), 1 (solid triangles), 5 (solid squares) and 50 ng/ml (solid circles) TNF-α for 0, 1, 4, 16 hours in 3 independent cases. Dose dependent expression of (FIG. 8E) PUMA, (FIG. 8F) IL-8 and (FIG. 8G) TNF-α in human islet at the 4 hour time point (n=3). […] (FIG. 8K) PUMA and (FIG. 8L) IL-8 expression in human islets stimulated with or without TNF-α (1, 5, 50 ng/ml) and/or IFNγ (10, 100, 1000 U/ml) for 4 hours. […] All data are presented as a mean±standard error.
Human islets and acinar cells isolated for research use were obtained from the Southern California Islet Cell Resources (SC-ICR) Center, Beckman Research Institute of the City of Hope (Duarte, Calif.) 1 to 3 days after isolation. The donor age ranged from 18 to 67 (48±14) years and included both sexes. Islet preparations with >70% purity and >90% viability were used. […]

human islets [6] = assay: Preproinsulin precursor mRNA synthesis and total insulin release of single human islets; type: cell-based; conditions: 16 hours, high glucose; TNF-α 50 ng/mL; IFNγ 10-1000 U/ml; FIG. 3B, 3C
Description: FIG. 3B) The glucose induced newly synthesized preproinsulin precursor mRNA measured by pre-spliced preproinsulin mRNA normalized by pre- and post-spliced preproinsulin mRNA (% exon) in the corresponding islets with or without 50 ng/ml. TNF-α was also examined (n=3, *p<0.05). FIG. 3C) Glucose induced preproinsululin precursor mRNA synthesis with or without TNF-α (1, 5 and 50 ng/ml) and/or IFNγ (10, 100 and 1000 U/ml) from a single human islet in hextuplicate. […] All data are presented as a mean±standard error.
Hand picked human islets were cultured with 100 uL of RPMI 1640 medium containing 5% fetal bovine serum and either low-glucose (3.3 mmol/L) or high-glucose (17 mmol/L) for 16 hours. Preproinsulin mRNA synthesis was measured from the islets by the methods described above. Pre-spliced preproinsulin mRNA (preproinsulin precursor mRNA) was normalized by pre- and post-spliced preproinsulin mRNA as described previously (32).
The effect of TNF-α and/or IFN-γ on β cell function was examined by analyzing the ability of human islets to synthesize and release insulin. […] The dose dependent effect of TNF-α and/or IFN-γ on preproinsulin precursor mRNA synthesis was also examined.

Cc1ccc(S(=O)(=O)/C=C/C#N)cc1 [BAY11-7082]
PUMA expression induced by the combination of TNF-α and IFNγ (western blot) (human islets [1]; 10 μM pre-incubation 1 hour, TNF-α 50 ng/ml + IFNγ 1000 U/ml, FIG. 2C): did not inhibit PUMA expression

Cc1ccc(NC(=O)c2ccc(CN3CCN(C)CC3)cc2)cc1Nc1nccc(-c2cccnc2)n1 [Imatinib]
protection of islets from combined cytokines (islets): protect islets from combined cytokines | TNF-α induced up regulation of PUMA mRNA (% ACTB) (human islets [2]): reduced the up regulation | TNF-α induced up regulation of IL-8 mRNA (% ACTB) (human islets [2]): reduced the up regulation | TNF-α induced up regulation of endogenous TNF mRNA (% ACTB) (human islets [2]): reduced the up regulation | spontaneous onset of diabetes (NOD mice): prevents the spontaneous onset of diabetes

Etanercept
TNF-α induced up regulation of PUMA mRNA (% ACTB) (human islets [2]): prevented TNF-α induced up regulation | TNF-α induced up regulation of IL-8 mRNA (% ACTB) (human islets [2]): prevented TNF-α induced up regulation | TNF-α induced up regulation of endogenous TNF mRNA (% ACTB) (human islets [2]): prevented TNF-α induced up regulation | HbA1C levels [3]: lowering HbA1C levels | endogenous insulin production [3]: increased levels of endogenous insulin production

IL-1β: recombinant IL-1β; cytokine stimulus
PUMA mRNA (% ACTB) in human islets (human islets [4]; FIG. 16A): induced; also recorded: returned to the normal level by 16 hours | IL-8 mRNA (% ACTB) in human islets (human islets [4]; FIG. 16B): induced | endogenous IL-1B mRNA (% ACTB) in human islets (human islets [4]; FIG. 16C): induced | endogenous TNF mRNA (% ACTB) in human islets (human islets [4]; FIG. 16D): induced

B1: IFN-γ: recombinant human IFNγ, R&D Systems; cytokine stimulus (protein, UniProt P01579 24-161, looked up)
Interferon gamma: QDPYVKEAENLKKYFNAGHSDVADNGTLFLGILKNWKEESDRKIMQSQIVSFYFKLFKNFKDDQSIQKSVETIKEDMNVKFFNSNKKKRDDFEKLTNYSVTDLNVQRKAIHELIQVMAELSPAAKTGKRKRSQMLFRG
PUMA protein expression (western blot) (human islets [1]; TNF-α 50 ng/mL and/or IFN-γ 1000 U/mL, FIG. 2A): but not by IFN-γ (1000 U/mL) alone | PUMA mRNA expression in human islets (human islets [5]; 4 hours, FIG. 8K): did not induce PUMA | IL-8 mRNA expression in human islets (human islets [5]; FIG. 8C, 8F, 8L): did not induce IL-8 expression | glucose-induced preproinsulin precursor mRNA synthesis (human islets [6]): did not impair
